Read-outs that look alike come from different tables or passages of the source. Marks after values point to notes of the source that are not given here.
What was measured:
[1] = tested on: hiPSC-derived neurons co-cultured with human primary astrocytes in 2D; experiment: Ca2+ transient oscillation assay (FDSS), 2D co-culture; type: cell-based; conditions: for activation at 0.37 µM / activation at 1.11 µM / activation at 3.33 µM / activation at 10 µM / activation at 30 µM: Homo sapiens, 1 h, 60 min
Excerpt: (§1) In this study, we used cryopreserved excitatory neurons that were differentiated from human induced pluripotent stem cells (hiPSCs; Cat #: EX-SeV-CW50065) (Elixirgen Scientific, Inc., Baltimore, MD, USA). The hiPSCs used, namely, CW50065 were derived from a healthy person and distributed by the California Institute of Regenerative Medicine Human Induced Pluripotent Stem Cell Repository. Human iPSC-derived excitatory neurons were differentiated from CW50065 using a proprietary cocktail of differentiation-inducing factors called Quick-Neuron™ EX-SeV (Batch number: EX-SeV-CW50065-L; Elixirgen Scientific, Inc.), cryopreserved 3 days after differentiation induction and distributed. Human iPSC-derived excitatory neurons were recovered from cryopreservation and maintained essentially as instructed by the manufacturer.
(§2) Cryopreserved human primary astrocytes (#N7805100, Thermo Fisher Scientific, Waltham, MA, USA) were recovered as instructed by the manufacturer and seeded in a 10 cm dish at the density of 2,000,000 cells. The culture was maintained using the Human Astrocytes Kit (#N7805200, Thermo Fisher Scientific) for 12 days. Half of the culture medium was replaced with fresh medium every 2–3 days during the culture period. These astrocytes were harvested using StemPro™ Accutase™ Cell Dissociation Reagent (#A1110501, Thermo Fisher Scientific) when they reached confluency. These cells were cryopreserved in STEM-CELLBANKER® GMP grade (ZENOGEN PHARMA, Kohriyama, Fukushima Japan) at the density of 2,000,000 cells per vial as working stocks for co-culture with neurons in 2D and 3D conditions described below. After a working stock was recovered, astrocytes were directly mixed with hiPSC-derived neurons for plating without further expansion.
Live neurons (hiPSC neurons) and human primary astrocytes were recovered from cryopreservation as described above and seeded in each well of 384-well plates at the density of 10,000 cells (HiPSC-cortical neurons) and human primary astrocytes at 2500 cells (ratio 4:1). These co-cultures were maintained under the medium conditions recommended by the manufacturer, namely Medium N(G2P), to complete the differentiation of excitatory neurons for the first week. […] Half of the culture medium was replaced with fresh medium every 3–4 days during the culture period.
After the incubation, the culture medium containing Cal-520 was replaced with 50 μL of HBSS supplemented with 0.1 mM MgCl2, 2 mM CaCl2, 10 mM HEPES, and 10 mM glucose and incubated at 37 ℃ for 15 min.
(§3) Prior to the fluorescence measurements, all wells to be measured were treated with 0.04% dimethyl sulfoxide (DMSO) to stabilize the oscillation signal. The first recording started 10 min after the addition of DMSO for each plate for 20 min. The effects of the test compound were recorded again starting 60 min after the administration of compounds, for 20 min.
Twenty-five compounds (Table 1) were first dissolved in either DMSO (most compounds) or distilled water depending on the compound, and further diluted with PBS to produce stock solutions concentrated 10-fold. […] The final concentration of DMSO was adjusted to 0.1%. Changes in the fluorescence intensity (FI) produced by Ca^2+ flux were measured at 37 °C for all wells of a 384-well plate simultaneously using the FDSS/µCell system (#C13299, Hamamatsu Photonics, Hamamatsu, Shizuoka, Japan). The excitation and the emission wavelengths were 470 nm and 540 nm, respectively. The recording duration was 20 min with a sampling frequency of 2 Hz for cells cultured under 2D conditions and 10 Hz for cells cultured under 3D conditions.

[2] = tested on: hiPSC-derived neurons co-cultured with human primary astrocytes in 3D; experiment: Ca2+ transient oscillation assay (FDSS), 3D spheroids; type: cell-based; conditions: for Area under the curve - 3D Mean / Peak Number—3D Mean / Peak amplitude - 3D Mean / Peak width - 3D Mean / Peak-to-peak interval - 3D Mean: 60 min
Excerpt: as §1, §2
We used U-shaped-bottom 96-well plates (#174925, Thermo Fisher Scientific) without any prior coating to make a spheroid in each well. Neurons and astrocytes were seeded and maintained as described for 2D cultures, except for the following modifications. First, neurons and astrocytes were seeded in each well of the 96-well plates at the density of 8000 hiPSC neurons with 8000 human primary astrocytes (8000)/well (ratio 1:1). Second, when the differentiation of excitatory neurons was completed one week after seeding, cells were fed with BrainPhys^TM Neuronal Medium (#05793, […] Technologies, Vancouver, BC, Canada) supplemented with 2% SM1 Neuronal Supplement, 1% N2 Supplement-A, and 10% Neuron culture medium for 5 weeks.
Cells maintained as spheroids (3D) in the U-shaped-bottom 96-well plates were transferred into 384-well spheroid plates (#4516, Merck, Corning, NY, USA) with 25 µL of the culture medium. A Ca^2+-indicating dye solution including […] was prepared using the EarlyTox™ Cardiotoxicity Kit (#R8211, Molecular Devices, LLC, San Jose, CA, USA) according to the manufacturer. Then, the same volume of the dye solution was dispensed into each well.
as §3
Twenty-five compounds (Table 1) were first dissolved in either DMSO (most compounds) or distilled water depending on the compound, and further diluted with PBS to produce stock solutions concentrated 10-fold. Then, 5 μL of each compound solution was injected into each well using an automatic pipetting robot (#4505, ASSIST PLUS pipetting robot, Integra Biosciences Corp., Hudson, NH, USA), so that the final concentration of each compound was 1-fold nominal in the well.

[3] = ref PharmaPendium, cited from earlier work
[4] = read-out: Area under the curve - 2D Mean
[5] = read-out: Peak amplitude - 2D Mean
[6] = read-out: Peak-to-peak interval - 2D Mean
[7] = Table 1, peak plasma concentration in men, free therapeutic Cmax
[8] = Table 2, highest plasma concentration in humans after the therapeutic dose

In the case of `Nc1ccncc1` [4-AP, 4-Aminopyridine], the “effect on peak number / Ca2+ neuronal oscillations, in words” value ([1]; 2D format) is reported as “significantly increased peak number”, the “response of positive controls on Ca2+ transient oscillations” value ([1]; 2D, 4-AP 30 µM, kainic acid 100 µM) is reported as “significant responses” and the “change of Ca2+ neuronal oscillations (Figure 1)” value ([1]; 4-AP at 30 µM, kainic acid at 10 µM) is reported as “large increases”. It also gave an activation at 0.37 µM [1, 4] of 39.5%, an activation at 0.37 µM ([1]; read-out: Peak Number—2D Mean) of 9% and an activation at 0.37 µM [1, 5] of 13.3%. The activation at 0.37 µM ([1]; read-out: Peak width - 2D Mean) was 34%, the activation at 0.37 µM [1, 6] was -13% and the activation at 1.11 µM [1, 4] was 18.7%. It also gave an activation at 1.11 µM ([1]; read-out: Peak Number—2D Mean) of 70.3%, an activation at 1.11 µM [1, 5] of 7.8% and an activation at 1.11 µM ([1]; read-out: Peak width - 2D Mean) of 14.3%. The activation at 1.11 µM [1, 6] was -29.8%, the activation at 3.33 µM [1, 4] was 17.6% and the activation at 3.33 µM ([1]; read-out: Peak Number—2D Mean) was 85.8%. For the same molecule, the activation at 3.33 µM [1, 5] was 10.4%, the activation at 3.33 µM ([1]; read-out: Peak width - 2D Mean) was 12.6% and the activation at 3.33 µM [1, 6] was -42.4%. The activation at 10 µM [1, 4] was 1.3%, the activation at 10 µM ([1]; read-out: Peak Number—2D Mean) was 110% and the activation at 10 µM [1, 5] was 8.5%. The activation at 10 µM ([1]; read-out: Peak width - 2D Mean) was -6.3%, the activation at 10 µM [1, 6] was -49.8% and the “Area under the curve - 3D Mean” value ([2]; 0.37 µM) was 53.7 % change from baseline. The “Peak Number—3D Mean” value ([2]; 0.37 µM) was 16.7 % change from baseline, the “Peak amplitude - 3D Mean” value ([2]; 0.37 µM) was 44.3 % change from baseline and the “Peak width - 3D Mean” value ([2]; 0.37 µM) was 2.8 % change from baseline. For the same molecule, the “Peak-to-peak interval - 3D Mean” value ([2]; 0.37 µM) was −9.2 % change from baseline, the “Area under the curve - 3D Mean” value ([2]; 1.11 µM) was 54.1 % change from baseline and the “Peak Number—3D Mean” value ([2]; 1.11 µM) was 62.4 * % change from baseline. For the same molecule, the “Peak amplitude - 3D Mean” value ([2]; 1.11 µM) was 39.6 % change from baseline, the “Peak width - 3D Mean” value ([2]; 1.11 µM) was 7.7 % change from baseline and the “Peak-to-peak interval - 3D Mean” value ([2]; 1.11 µM) was −24.1 % change from baseline. The “Area under the curve - 3D Mean” value ([2]; 3.33 µM) was 97.2 % change from baseline, the “Peak Number—3D Mean” value ([2]; 3.33 µM) was 24.1 * % change from baseline and the “Peak amplitude - 3D Mean” value ([2]; 3.33 µM) was 46.1 % change from baseline. For the same molecule, the “Peak width - 3D Mean” value ([2]; 3.33 µM) was 35.1 % change from baseline, the “Peak-to-peak interval - 3D Mean” value ([2]; 3.33 µM) was −17.6 % change from baseline and the “Area under the curve - 3D Mean” value ([2]; 10 µM) was 72.3 % change from baseline. The “Peak Number—3D Mean” value ([2]; 10 µM) was 89.0 ** % change from baseline, the “Peak amplitude - 3D Mean” value ([2]; 10 µM) was 42.8 % change from baseline and the “Peak width - 3D Mean” value ([2]; 10 µM) was 21.4 % change from baseline. For the same molecule, the “Peak-to-peak interval - 3D Mean” value ([2]; 10 µM) was −47.2 % change from baseline, the “response of positive controls on Ca2+ transient oscillations” value ([2]; 3D, 4-AP 30 µM, kainic acid 100 µM) was “significant responses” and the “Free Cmax” value [3, 7] was 25 to 75 nM. For the same molecule, the “Free Cmax” value [3, 8] was 25 to 75 nM.
With `CC(=O)Nc1ccc(O)cc1` [Acetaminophen] the “effect on peak count within expected therapeutic exposure levels” value ([1]; 2D) was “did not significantly reduce peak count”, the “effect on Ca2+ neuronal oscillations / peak count at 30 µM, in words” value ([1]; 2D, 30 µM, listed as Paracetamol) was “did reduce” and the activation at 1.11 µM [1, 4] was 23%. The activation at 1.11 µM ([1]; read-out: Peak Number—2D Mean) was -11.7%, the activation at 1.11 µM [1, 5] was 8.8% and the activation at 1.11 µM ([1]; read-out: Peak width - 2D Mean) was 13%. For the same molecule, the activation at 1.11 µM [1, 6] was 34%, the activation at 3.33 µM [1, 4] was 35.8% and the activation at 3.33 µM ([1]; read-out: Peak Number—2D Mean) was -25%. For the same molecule, the activation at 3.33 µM [1, 5] was 12.3%, the activation at 3.33 µM ([1]; read-out: Peak width - 2D Mean) was 34.3% and the activation at 3.33 µM [1, 6] was -35.3%. It also gave an activation at 10 µM [1, 4] of 13.2%, an activation at 10 µM ([1]; read-out: Peak Number—2D Mean) of -18.2% and an activation at 10 µM [1, 5] of -0.3%. The activation at 10 µM ([1]; read-out: Peak width - 2D Mean) was 16.2%, the activation at 10 µM [1, 6] was -14.5% and the activation at 30 µM ([1]; 30 µM, read-out: Area under the curve - 2D Mean) was -93.2%. It also gave an activation at 30 µM ([1]; 30 µM, read-out: Peak Number—2D Mean) of -94.5%, an activation at 30 µM ([1]; 30 µM, read-out: Peak amplitude - 2D Mean) of -89.8% and an activation at 30 µM ([1]; 30 µM, read-out: Peak width - 2D Mean) of -92.5%. For the same molecule, the activation at 30 µM ([1]; 30 µM, read-out: Peak-to-peak interval - 2D Mean) was -100%, the “Area under the curve - 3D Mean” value ([2]; 1.11 µM) was 104.3 % change from baseline and the “Peak Number—3D Mean” value ([2]; 1.11 µM) was 2.2 % change from baseline. For the same molecule, the “Peak amplitude - 3D Mean” value ([2]; 1.11 µM) was 97.4 % change from baseline, the “Peak width - 3D Mean” value ([2]; 1.11 µM) was 0.6 % change from baseline and the “Peak-to-peak interval - 3D Mean” value ([2]; 1.11 µM) was 12.7 % change from baseline. The “Area under the curve - 3D Mean” value ([2]; 3.33 µM) was 121.7 % change from baseline, the “Peak Number—3D Mean” value ([2]; 3.33 µM) was −3.0 % change from baseline and the “Peak amplitude - 3D Mean” value ([2]; 3.33 µM) was 106.4 % change from baseline. The “Peak width - 3D Mean” value ([2]; 3.33 µM) was 5.9 % change from baseline, the “Peak-to-peak interval - 3D Mean” value ([2]; 3.33 µM) was 17.4 % change from baseline and the “Area under the curve - 3D Mean” value ([2]; 10 µM) was 122.4 % change from baseline. The “Peak Number—3D Mean” value ([2]; 10 µM) was 12.5 % change from baseline, the “Peak amplitude - 3D Mean” value ([2]; 10 µM) was 108.6 % change from baseline and the “Peak width - 3D Mean” value ([2]; 10 µM) was 6.3 % change from baseline. The “Peak-to-peak interval - 3D Mean” value ([2]; 10 µM) was −6.2 % change from baseline, the “Area under the curve - 3D Mean” value ([2]; 30 µM) was 132.0 % change from baseline and the “Peak Number—3D Mean” value ([2]; 30 µM) was 47.2 * % change from baseline. The “Peak amplitude - 3D Mean” value ([2]; 30 µM) was 113.9 % change from baseline, the “Peak width - 3D Mean” value ([2]; 30 µM) was 9.0 % change from baseline and the “Peak-to-peak interval - 3D Mean” value ([2]; 30 µM) was −8.8 % change from baseline. The “Free Cmax” value [3, 7] was 460 nM and the “Free Cmax” value [3, 8] was 460 nM.
